Target: T1, α4β7 integrin (Homo sapiens, UniProt P13612+P26010)
T1 construct: a cell line RPMI-8866, which is known to express α4β7 integrin; endogenous in cells; host or cells: RPMI-8866 (human B cell line)
T1 sequence (P13612 34-1032): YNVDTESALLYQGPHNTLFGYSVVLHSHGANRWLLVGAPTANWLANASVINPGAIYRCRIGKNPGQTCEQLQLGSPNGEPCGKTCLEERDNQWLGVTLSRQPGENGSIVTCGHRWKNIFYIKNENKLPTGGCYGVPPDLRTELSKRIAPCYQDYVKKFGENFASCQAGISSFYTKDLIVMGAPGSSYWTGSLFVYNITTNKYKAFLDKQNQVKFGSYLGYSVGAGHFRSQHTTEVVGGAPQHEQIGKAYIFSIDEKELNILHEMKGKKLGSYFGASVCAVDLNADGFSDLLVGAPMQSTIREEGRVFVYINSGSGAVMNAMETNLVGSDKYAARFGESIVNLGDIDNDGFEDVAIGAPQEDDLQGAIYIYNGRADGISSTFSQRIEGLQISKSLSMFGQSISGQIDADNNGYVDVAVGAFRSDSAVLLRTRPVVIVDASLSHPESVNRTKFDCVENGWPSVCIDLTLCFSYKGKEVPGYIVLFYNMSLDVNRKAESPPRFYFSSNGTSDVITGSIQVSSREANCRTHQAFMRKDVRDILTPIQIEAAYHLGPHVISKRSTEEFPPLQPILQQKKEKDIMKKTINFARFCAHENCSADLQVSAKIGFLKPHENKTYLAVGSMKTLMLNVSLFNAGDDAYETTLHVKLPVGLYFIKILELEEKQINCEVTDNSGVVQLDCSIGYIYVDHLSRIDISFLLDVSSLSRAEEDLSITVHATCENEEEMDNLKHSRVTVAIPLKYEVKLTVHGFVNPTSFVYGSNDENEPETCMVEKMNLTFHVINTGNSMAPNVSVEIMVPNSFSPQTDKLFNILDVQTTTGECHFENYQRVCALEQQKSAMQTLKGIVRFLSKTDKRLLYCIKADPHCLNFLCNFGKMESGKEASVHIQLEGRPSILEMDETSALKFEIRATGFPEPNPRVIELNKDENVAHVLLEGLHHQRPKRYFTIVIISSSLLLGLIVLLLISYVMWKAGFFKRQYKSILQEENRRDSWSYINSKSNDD
T1 sequence (P26010 20-798): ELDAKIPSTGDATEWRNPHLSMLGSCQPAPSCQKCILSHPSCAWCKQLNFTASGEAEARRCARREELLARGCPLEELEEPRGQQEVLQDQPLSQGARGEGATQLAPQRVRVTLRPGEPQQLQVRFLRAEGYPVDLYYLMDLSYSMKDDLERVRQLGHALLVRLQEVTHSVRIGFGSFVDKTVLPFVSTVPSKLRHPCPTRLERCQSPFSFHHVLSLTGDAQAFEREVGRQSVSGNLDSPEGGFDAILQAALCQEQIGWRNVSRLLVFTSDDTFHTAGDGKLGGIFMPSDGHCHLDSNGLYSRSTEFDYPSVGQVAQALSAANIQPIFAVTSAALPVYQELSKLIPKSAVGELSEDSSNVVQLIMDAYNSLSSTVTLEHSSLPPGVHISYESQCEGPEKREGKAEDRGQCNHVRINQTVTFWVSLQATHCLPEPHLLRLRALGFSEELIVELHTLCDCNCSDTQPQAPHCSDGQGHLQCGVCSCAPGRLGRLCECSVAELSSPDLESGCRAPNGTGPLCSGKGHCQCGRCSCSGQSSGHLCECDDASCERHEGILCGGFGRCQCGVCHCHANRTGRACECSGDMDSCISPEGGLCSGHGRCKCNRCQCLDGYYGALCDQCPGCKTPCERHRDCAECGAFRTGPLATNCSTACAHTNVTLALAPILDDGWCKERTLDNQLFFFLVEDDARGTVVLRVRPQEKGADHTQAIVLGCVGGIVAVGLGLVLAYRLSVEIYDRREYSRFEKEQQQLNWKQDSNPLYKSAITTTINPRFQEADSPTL
Test: MAdCAM-1/α4β7 integrin binding inhibitory activity evaluation test (RPMI-8866 cells binding to MAdCAM-1/Fc)
Assay type: cell-based
Details: recombinant mouse MAdCAM-1/Fc, no serum
Experimental: (2) MAdCAM-1/α4β7 Integrin Binding Inhibitory Activity Evaluation Test
Each test substance was measured in terms of an ability to inhibit the MAdCAM-1 binding of a human B cell line, namely, a cell line RPMI-8866, which is known to express α4β7 integrin.
A solution of recombinant mouse MAdCAM-1/Fc (R&D Systems, Inc.) (0.75 μg/mL) diluted with a buffer A (carbonate buffer, pH 9.6) was added in an amount of 50 μL/well to a 96-well microtiter plate, followed by incubation at 4° C. overnight. After the plate was washed with PBS once, 150 μL/well of Block Ace (Snow Brand Milk Products Co., Ltd.) was added, followed by incubation at room temperature for 2 hours. After removal, the plate was washed with PBS once.
Then, 100 μL of the RPMI-8866 cells (2×10^6 cells/mL) and 100 μL of the test substance at each of various concentrations diluted with a binding buffer (DMEM containing 40 mM HEPES, 0.2% BSA, and 4 mM MnCl2) were added on the plate coated with the MAdCAM-1/Fc (5×10^5 cells/well), followed by incubation at 30° C. for 15 to 60 minutes. After the cells were bound to the wells, the plate was washed with PBS to remove unbound cells. A buffer C (PBS containing 1.5% Triton X-100) in an amount 50 μL/well was added to the plate to lyse the bound RPMI-8866 cells. After 30 μL of a substrate buffer (Promega, CytoTox 96 Non-Radioactive Cytotoxicity Assay) was added to 30 μL of the cell lysate, a reaction was allowed to proceed at room temperature in the dark for 30 minutes. After 30 μL of a stop solution (Promega, CytoTox 96 Non-Radioactive Cytotoxicity Assay) was added to each, and then an absorbance at 490 nm was measured using a plate reader. The absorbance obtained here represents a detection result of an activity of lactate dehydrogenase (LDH) eluted in the supernatant of each well, that is, the absorbance is proportional to the number of RPMI-8866 cells bound to the MAdCAM-1 and thus remaining on the plate. The test was performed in duplicate. Provided that the absorbance of the well containing no test substance was 100%, a cell binding rate with the test substance at each of the various concentrations was figured out, and a concentration IC50 which brought about 50% binding inhibition was calculated.

Row | IC50 [nM] | SMILES
1 | 0.26 | Cn1c(=O)n(-c2ccc(C[C@H](NC(=O)c3cc(F)c(NS(=O)(=O)c4ccc(NC(=O)C(C)(C)C)cc4)cc3F)C(=O)O)cc2)c(=O)c2ccncc21 [Compound A1, (2S)-2-[[4-[[4-(2,2-dimethylpropanoylamino)phenyl]sulfonylamino]-2,5-difluoro-benzoyl]amino]-3-[4-(1-methyl-2,4-dioxo-pyrido[3,4-d]pyrimidin-3-yl)phenyl]propanoic acid]
2 | 1.2 | CC(=O)Nc1ccc(S(=O)(=O)Nc2cc(F)c(C(=O)N[C@@H](Cc3ccc(-n4c(=O)c5ccncc5n(C)c4=O)cc3)C(=O)O)cc2F)cc1 [Compound A2]
3 | 0.72 | CCC(CC)C(=O)Nc1ccc(S(=O)(=O)Nc2cc(F)c(C(=O)N[C@@H](Cc3ccc(-n4c(=O)c5ccncc5n(C)c4=O)cc3)C(=O)O)cc2F)cc1 [Compound A3]
4 | 0.85 | CCC(CC)C(=O)Nc1ccc(S(=O)(=O)Nc2cc(F)c(C(=O)N[C@@H](Cc3ccc(-n4c(=O)c(C)c(C)n(C)c4=O)cc3)C(=O)O)cc2F)cc1 [Compound A4]
5 | 2.3 | Cn1c(=O)n(-c2ccc(C[C@H](NC(=O)c3cc(F)c(NS(=O)(=O)c4ccc(NC(=O)NC(C)(C)C)cc4)cc3F)C(=O)O)cc2)c(=O)c2ccncc21 [Compound A5]
6 | 2.4 | Cn1c(=O)n(-c2ccc(C[C@H](NC(=O)c3cc(F)c(NS(=O)(=O)c4ccc(NC(=O)C5CCNCC5)cc4)cc3F)C(=O)O)cc2)c(=O)c2ccncc21 [Compound A6, (2S)-2-[[2,5-difluoro-4-[[4-(piperidine-4-carbonylamino)phenyl]sulfonylamino]benzoyl]amino]-3-[4-(1-methyl-2,4-dioxo-pyrido[3,4-d]pyrimidin-3-yl)phenyl]propanoic acid]
7 | 0.36 | Cn1c(=O)n(-c2ccc(C[C@H](NC(=O)c3cc(F)c(NS(=O)(=O)c4ccc(NC(=O)c5ccncc5)cc4)cc3F)C(=O)O)cc2)c(=O)c2ccncc21 [Compound A7]
8 | 0.33 | Cc1c(C)n(C)c(=O)n(-c2ccc(C[C@H](NC(=O)c3cc(F)c(NS(=O)(=O)c4ccc(NC(=O)C(C)(C)C)cc4)cc3F)C(=O)O)cc2)c1=O [Compound A8]
9 | 0.41 | Cn1c(=O)n(-c2ccc(C[C@H](NC(=O)c3cc(F)c(NS(=O)(=O)c4ccc(NC(=O)C(C)(C)C)s4)cc3F)C(=O)O)cc2)c(=O)c2ccncc21 [Compound A9]
10 | 0.38 | Cc1c(C)n(C)c(=O)n(-c2ccc(C[C@H](NC(=O)c3cc(F)c(NS(=O)(=O)c4ccc(NC(=O)C(C)(C)C)s4)cc3F)C(=O)O)cc2)c1=O [Compound A10]
11 | 2 | Cc1c(C)n(C)c(=O)n(-c2ccc(C[C@H](NC(=O)c3cc(F)c(NS(=O)(=O)c4cc(NC(=O)C(C)(C)C)cs4)cc3F)C(=O)O)cc2)c1=O [Compound A11]
12 | 0.45 | Cn1c(=O)n(-c2ccc(C[C@H](NC(=O)c3cc(F)c(NS(=O)(=O)c4ccc(NC(=O)C(C)(C)C)c(F)c4)cc3F)C(=O)O)cc2)c(=O)c2ccncc21 [Compound A12]
13 | 0.38 | Cn1c(=O)n(-c2ccc(C[C@H](NC(=O)c3cc(F)c(NS(=O)(=O)c4ccc(NC(=O)C5CCOCC5)cc4)cc3F)C(=O)O)cc2)c(=O)c2ccncc21 [Compound A14]
14 | 0.93 | Cc1c(C)n(C)c(=O)n(-c2ccc(C[C@H](NC(=O)c3cc(F)c(NS(=O)(=O)c4ccc(NC(=O)C5CCOCC5)cc4)cc3F)C(=O)O)cc2)c1=O [Compound A15]
15 | 0.52 | COC1(C(=O)Nc2ccc(S(=O)(=O)Nc3cc(F)c(C(=O)N[C@@H](Cc4ccc(-n5c(=O)c6ccncc6n(C)c5=O)cc4)C(=O)O)cc3F)cc2)CC1 [Compound A16]
16 | 0.55 | COC1(C(=O)Nc2ccc(S(=O)(=O)Nc3cc(F)c(C(=O)N[C@@H](Cc4ccc(-n5c(=O)c(C)c(C)n(C)c5=O)cc4)C(=O)O)cc3F)cc2)CC1 [Compound A17]
17 | 0.36 | Cn1c(=O)n(-c2ccc(C[C@H](NC(=O)c3cc(F)c(NS(=O)(=O)c4ccc(NC(=O)C(C)(C)CO)cc4)cc3F)C(=O)O)cc2)c(=O)c2ccncc21 [Compound A18]
18 | 0.39 | Cc1c(C)n(C)c(=O)n(-c2ccc(C[C@H](NC(=O)c3cc(F)c(NS(=O)(=O)c4ccc(NC(=O)C(C)(C)C)cn4)cc3F)C(=O)O)cc2)c1=O [Compound A19]
19 | 0.25 | Cc1c(C)n(C)c(=O)n(-c2ccc(C[C@H](NC(=O)c3cc(F)c(NS(=O)(=O)c4ccc(NC(=O)C5(C(F)(F)F)CC5)cc4)cc3F)C(=O)O)cc2)c1=O [Compound A20]
20 | 0.34 | Cc1c(C)n(C)c(=O)n(-c2ccc(C[C@H](NC(=O)c3cc(F)c(NS(=O)(=O)c4ccc(NC(=O)C(C)(C)CO)cc4)cc3F)C(=O)O)cc2)c1=O [Compound A21]
21 | 0.98 | Cc1c(C)n(C)c(=O)n(-c2ccc(C[C@H](NC(=O)c3cc(F)c(NS(=O)(=O)c4ccc(NC(=O)C5(O)CC5)cc4)cc3F)C(=O)O)cc2)c1=O [Compound A22]
22 | 1 | Cn1c(=O)n(-c2ccc(C[C@H](NC(=O)c3cc(F)c(NS(=O)(=O)c4ccc(NC(=O)C5(O)CC5)cc4)cc3F)C(=O)O)cc2)c(=O)c2ccncc21 [Compound A23]
23 | 0.3 | Cn1c(=O)n(-c2ccc(C[C@H](NC(=O)c3cc(F)c(NS(=O)(=O)c4ccc(NC(=O)C5(C(F)(F)F)CC5)cc4)cc3F)C(=O)O)cc2)c(=O)c2ccncc21 [Compound A24]
24 | 1.1 | Cc1c(C)n(C)c(=O)n(-c2ccc(C[C@H](NC(=O)c3cc(F)c(NS(=O)(=O)c4ccc(NC(=O)C(C)(C)C)nc4)cc3F)C(=O)O)cc2)c1=O [Compound A25]
25 | 0.23 | Cn1c(=O)n(-c2ccc(C[C@H](NC(=O)c3cc(F)c(NS(=O)(=O)c4ccc(NC(=O)C(C)(C)C)cc4)cc3F)C(=O)O)cn2)c(=O)c2ccncc21 [Compound A26]
26 | 0.36 | Cn1c2c(c(=O)n(-c3ccc(C[C@H](NC(=O)c4cc(F)c(NS(=O)(=O)c5ccc(NC(=O)C(C)(C)C)cc5)cc4F)C(=O)O)cc3)c1=O)CCOC2 [Compound A27]
